Reference: patent publication US4032656A, “Aromatic prostaglandin derivatives” (SmithKline Corporation, priority 1975, dated 1977)

Legend:
prostaglandin synthesis = test: Inhibition of prostaglandin synthesis (arachidonic acid-dependent formation of adrenochrome from L-epinephrine during prostaglandin biosynthesis; Takeguchi and Sih); type: biochemical; settings: for IC50: read-out: ID50 (the source's name)
Text: The prostaglandin synthesis inhibition method as employed is reported by Takeguchi and Sih, Prostaglandins, 2, 169, 1972. The principle entails the arachidonic acid-dependent formation of adrenochrome from L-epinephrine during prostaglandin biosynthesis. Indomethacin, phenylbutazone and aspirin were used as reference compounds.

PGE2 diarrhea in mice = test: Antagonism of diarrhea induced by prostaglandin E2 (PGE2); type: in vivo; settings: 20 mg./kg., subcutaneously 15 minutes prior to intraperitoneal PGE2, examined every 15 minutes for one hour
Experimental: The antagonism of diarrhea induced by prostaglandin E2 (PGE2) was determined by employing the modified standard animal pharmacological test procedure as reported in Intra Science Chem. Rept, 6:1-9, 1972 and Annals of the New York Academy of Sciences, 180:386-95, 1971. Briefly the test comprises administering the test compounds subcutaneously 15 minutes prior to an intraperitoneal injection of PGE2. Each animal is examined for diarrhea (which results after the administration of PGE2) every 15 minutes for one hour post-drug. Polyphloretin phosphate and 7 oxa-13-prostynoic acid, both well known antagonists of prostaglandin induced diarrhea, were employed as reference compounds.

[1] = prostaglandin synthesis inhibition

Compound | IC50 (prostaglandin synthesis; [1]) | inhibition of PGE2 diarrhea in mice (PGE2 diarrhea in mice) | also measured
CC(=O)Oc1ccccc1C(=O)O [aspirin, reference compound] | 3700 µM |  | 
CCCCCC(O)/C=C/c1ccccc1CCCCCCC(=O)OC (stereo not drawn) [1-(6-carbomethoxyhexyl)-2-(3-hydroxy-trans-1-octenyl)benzene] |  | 53% | 
polyphloretin phosphate [reference compound] |  | 36% | 

Continued, in another order:

IC50 (prostaglandin synthesis; [1]) | Compound | inhibition of PGE2 diarrhea in mice (PGE2 diarrhea in mice) | also measured
875 µM | CCCCC1C(=O)N(c2ccccc2)N(c2ccccc2)C1=O [phenylbutazone, reference compound] |  | 
410 µM | CCCCCC(O)/C=C/c1ccccc1CCCCCCC(=O)O (stereo not drawn) [1-(6-carboxyhexyl)-2-(3-hydroxy-trans-1-octenyl)benzene] |  | inhibition of prostaglandin synthesis (prostaglandin synthesis; at 1000 μM): 100%; potency as inhibitor relative to aspirin (prostaglandin synthesis; ratio of ID50's, prostaglandin synthesis inhibition, vs aspirin): nine times as potent; potency as inhibitor relative to phenylbutazone (prostaglandin synthesis; ratio of ID50's, prostaglandin synthesis inhibition, vs phenylbutazone): twice as potent
